Experimental data from patent US7713937B2, “Synthetic peptide amides and dimeric forms thereof” (Cara Therapeutics, Inc., priority 2006, dated 2010).
Square brackets hold non-standard residues; d marks the D form. Peptide text beside a SMILES is read from it. * marks the point of attachment. Piperidinyl(4-(1-Pro-OH)) = O=C(O)[C@@H]1CCCN1C1CCN(*)CC1; Piperidin1yl(4-NH2,4-COOH) = NC1(C(=O)O)CCN(*)CC1; dAgb = N=C(N)NCC[C@@H](N)C(=O)O; Homopiperazinyl = C1CNCCN(*)C1; dAgp = N=C(N)NC[C@@H](N)C(=O)O; dNle = CCCC[C@@H](N)C(=O)O; dDab = NCC[C@@H](N)C(=O)O; Morpholide = C1CN(*)CCO1; Inp = O=C(O)C1CCNCC1

Assays:
[1] = molecular target: T1, mouse kappa opioid receptor (mKOR) (Mus musculus, UniProt P33534); assay: cell-based; settings: for Emax: read-out: mKOR Efficacy(%)
T1 construct: Stimulation of Endogenous Mouse Kappa-Opioid Receptor in R1.G1 Cells; host or cells: R1.G1 mouse thymoma cells
T1 sequence (P33534 whole entry): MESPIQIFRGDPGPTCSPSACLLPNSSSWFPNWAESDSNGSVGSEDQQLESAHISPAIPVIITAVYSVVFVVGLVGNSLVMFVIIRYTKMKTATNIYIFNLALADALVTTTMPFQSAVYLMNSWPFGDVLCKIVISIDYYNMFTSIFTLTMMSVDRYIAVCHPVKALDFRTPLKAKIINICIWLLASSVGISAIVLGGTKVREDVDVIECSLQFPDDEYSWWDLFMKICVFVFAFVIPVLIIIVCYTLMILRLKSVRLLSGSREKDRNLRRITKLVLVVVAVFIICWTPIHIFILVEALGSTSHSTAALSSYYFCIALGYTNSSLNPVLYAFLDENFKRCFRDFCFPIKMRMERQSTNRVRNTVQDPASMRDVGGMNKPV

[2] = molecular target: T2, human kappa opioid receptor (hKOR) (Homo sapiens, UniProt P41145); assay: cell-based; settings: for Emax: HEK293, read-out: hKOR Efficacy(%)
T2 construct: expressed in transfected cells; host or cells: HEK-293 cells, transient transfection with Fugene6
T2 sequence (P41145 whole entry): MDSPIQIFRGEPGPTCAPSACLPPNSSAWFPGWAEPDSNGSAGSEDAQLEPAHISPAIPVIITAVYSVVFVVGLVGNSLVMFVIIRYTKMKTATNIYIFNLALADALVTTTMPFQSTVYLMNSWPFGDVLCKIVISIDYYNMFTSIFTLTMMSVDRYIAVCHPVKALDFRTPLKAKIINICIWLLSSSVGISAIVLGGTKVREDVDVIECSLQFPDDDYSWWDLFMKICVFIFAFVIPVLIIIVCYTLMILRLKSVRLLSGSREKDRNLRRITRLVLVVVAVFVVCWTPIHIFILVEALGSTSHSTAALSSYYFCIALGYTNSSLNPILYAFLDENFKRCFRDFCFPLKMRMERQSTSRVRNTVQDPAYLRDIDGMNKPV

CCN1CCCN(C(=O)[C@@H](CCCN)NC(=O)[C@@H](CC(C)C)NC(=O)[C@@H](Cc2ccccc2)NC(=O)[C@H](N)Cc2ccccc2)CC1 [Compound (55), D-Phe-D-Phe-D-Leu-D-Orn-[4-ethylhomopiperazine amide]]
EC50 [1]: 0.049 nM
Emax [1]: 99%
EC50 [2]: 0.14 nM
Emax [2]: 93%

CC(C)C[C@@H](NC(=O)[C@@H](Cc1ccccc1)NC(=O)[C@H](N)Cc1ccccc1)C(=O)N[C@H](CCCCN)C(=O)N1CCC(n2cc(-c3ccccc3)[nH]c2=O)CC1 [Compound (30)]
EC50 [1]: 0.129 nM
Emax [1]: 88%
Emax [2]: 95%

CC(C)C[C@@H](NC(=O)[C@@H](Cc1ccccc1)NC(=O)[C@H](N)Cc1ccccc1)C(=O)N[C@H](CCCCN)C(=O)N1CCc2[nH]ncc2C1 [Compound (37), D-Phe-D-Phe-D-Leu-D-Lys-[4,5,6,7-tetrahydro-1H-pyrazolo[4,3-c]pyridine amide]]
EC50 [1]: 0.0234 nM
Emax [1]: 90%
EC50 [2]: 0.0052 nM
Emax [2]: 100%

CC(C)C[C@@H](NC(=O)[C@@H](Cc1ccccc1)NC(=O)[C@H](N)Cc1ccccc1)C(=O)N[C@H](CCCCN)C(=O)NCC1CCOCC1 [Compound (73)]
EC50 [1]: 0.633 nM
Emax [1]: 89%
EC50 [2]: 0.0034 nM
Emax [2]: 99%

CNCCCC[C@@H](NC(=O)[C@@H](CC(C)C)NC(=O)[C@@H](Cc1ccccc1)NC(=O)[C@H](N)Cc1ccccc1)C(=O)N1CCC(N2CCC[C@H]2C(=O)O)CC1 [Compound (6), D-Phe-D-Phe-D-Leu-(ε-Me)D-Lys-[N-(4-piperidinyl)-L-proline]-OH]
EC50 [1]: 0.036 nM
Emax [1]: 94%
EC50 [2]: 0.13 nM
Emax [2]: 100%

CC(C)C[C@@H](NC(=O)[C@@H](Cc1ccccc1)NC(=O)[C@H](N)Cc1ccccc1)C(=O)N[C@H](CCCCN)C(=O)N1CCN(S(C)(=O)=O)CC1 [Compound (68), D-Phe-D-Phe-D-Leu-D-Lys-[1-(methylsulfonyl)piperazine amide]]
EC50 [1]: 0.246 nM
Emax [1]: 82%
EC50 [2]: 0.0073 nM
Emax [2]: 100%

CC(C)C[C@@H](NC(=O)[C@@H](Cc1ccccc1)NC(=O)[C@H](N)Cc1ccccc1)C(=O)N[C@H](CCCCNC(C)C)C(=O)N1CCCN(C(=N)N)CC1 [Compound (17), D-Phe-D-Phe-D-Leu-(ε-iPr)D-Lys-[4-Amidinohomopiperazine amide]]
EC50 [1]: 0.039 nM
Emax [1]: 103%
EC50 [2]: 0.1 nM
Emax [2]: 102%

CCCC[C@@H](NC(=O)[C@@H](Cc1ccccc1)NC(=O)[C@H](N)Cc1ccccc1)C(=O)N[C@H](CNC(=N)N)C(=O)N1CCCNCC1 [Compound (21), D-Phe-D-Phe-D-Nle-(β-amidino)D-Dap-[homopiperazine amide]] (H-[dF][dF][dNle][dAgp]-Homopiperazinyl)
EC50 [1]: 0.732 nM
Emax [1]: 103%
EC50 [2]: 1.06 nM
Emax [2]: 99%

CC(C)C[C@@H](NC(=O)[C@@H](Cc1ccccc1)NC(=O)[C@H](N)Cc1ccccc1)C(=O)N[C@H](CCN)C(=O)N1CCC(N2CCC[C@H]2C(=O)O)CC1 [Compound (12), D-Phe-D-Phe-D-Leu-D-Dbu-[N-(4-piperidinyl)-L-proline]-OH] (H-[dF][dF][dL][dDab]-{Piperidinyl(4-(1-Pro-OH))})
EC50 [1]: 0.055 nM
Emax [1]: 89%
EC50 [2]: 0.17 nM

CNCCCC[C@@H](NC(=O)[C@@H](CC(C)C)NC(=O)[C@@H](Cc1ccccc1)NC(=O)[C@H](N)Cc1ccccc1)C(=O)N1CCC(N)(C(=O)O)CC1 [Compound (3), D-Phe-D-Phe-D-Leu-(ε-Me)D-Lys-[ω(4-aminopiperidine-4-carboxylic acid)]-OH]
EC50 [1]: 0.052 nM
Emax [1]: 96%
EC50 [2]: 0.16 nM
Emax [2]: 100%

CC(C)C[C@@H](NC(=O)[C@@H](Cc1ccccc1)NC(=O)[C@H](N)Cc1ccccc1)C(=O)N[C@H](CCCCN)C(=O)NCc1cn2ccccc2n1 [Compound (34), D-Phe-D-Phe-D-Leu-D-Lys-[imidazo[1,2-a]pyridine-2-ylmethyl amide]]
EC50 [1]: 0.354 nM
Emax [1]: 90%
EC50 [2]: 0.0208 nM
Emax [2]: 101%

CC(C)C[C@@H](NC(=O)[C@@H](Cc1ccccc1)NC(=O)[C@H](N)Cc1ccccc1)C(=O)N[C@H](CCCN)C(=O)N1CCC(N)(C(=O)O)CC1 [Compound (43), D-Phe-D-Phe-D-Leu-D-Orn-[ω(4-aminopiperidine-4-carboxylic acid)]-OH]
EC50 [1]: 0.041 nM
Emax [1]: 100%
EC50 [2]: 0.14 nM
Emax [2]: 107%

CC(C)C[C@@H](NC(=O)[C@@H](Cc1ccccc1)NC(=O)[C@H](N)Cc1ccccc1)C(=O)N[C@H](CNC(=N)N)C(=O)N1CCCNCC1 [Compound (20), D-Phe-D-Phe-D-Leu-(β-amidino)D-Dap-[homopiperazine amide]] (H-[dF][dF][dL][dAgp]-Homopiperazinyl)
EC50 [1]: 0.491 nM
Emax [1]: 102%
EC50 [2]: 0.39 nM
Emax [2]: 84%

CC(C)C[C@@H](NC(=O)[C@@H](Cc1ccccc1)NC(=O)[C@H](N)Cc1ccccc1)C(=O)N[C@H](CCCN)C(=O)NCCN1CCN(CC(=O)O)CC1 [Compound (38), D-Phe-D-Phe-D-Leu-D-Orn-[4-(2-aminoethyl)-1-carboxymethyl-piperazine]-OH]
EC50 [1]: 0.403 nM
Emax [1]: 98%
Emax [2]: 102%

CC(C)C[C@@H](NC(=O)[C@@H](Cc1ccccc1)NC(=O)[C@H](N)Cc1ccccc1)C(=O)N[C@H](CCCCN)C(=O)NCc1ccc2[nH]c(=O)[nH]c2c1 [Compound (74), D-Phe-D-Phe-D-Leu-D-Lys-[5-(aminomethyl)-1H-benzo[d]imidazol-2(3H)-one amide]]
EC50 [1]: 0.072 nM
Emax [1]: 87%
EC50 [2]: 0.0063 nM
Emax [2]: 99%

CC(C)C[C@@H](NC(=O)[C@@H](Cc1ccccc1)NC(=O)[C@H](N)Cc1ccccc1)C(=O)N[C@H](CCCNC(C)C)C(=O)N1CCCN(C(=N)N)CC1 [Compound (59), D-Phe-D-Phe-D-Leu-(δ-iPr)D-Orn-[4-amidinohomopiperazine amide]]
EC50 [1]: 0.081 nM
Emax [1]: 97%
EC50 [2]: 0.08 nM
Emax [2]: 100%

CNCCC[C@@H](NC(=O)[C@@H](CC(C)C)NC(=O)[C@@H](Cc1ccccc1)NC(=O)[C@H](N)Cc1ccccc1)C(=O)N1CCCN(C(=N)N)CC1 [Compound (57), D-Phe-D-Phe-D-Leu-(δ-Me)D-Orn-[4-amidinohomopiperazine amide]]
EC50 [1]: 0.078 nM
Emax [1]: 97%
EC50 [2]: 0.09 nM
Emax [2]: 101%

CC(C)C[C@@H](NC(=O)[C@@H](Cc1ccccc1)NC(=O)[C@H](N)Cc1ccccc1)C(=O)N[C@H](CCCCN)C(=O)N1CCC2(CC1)C(=O)NCN2c1ccccc1 [Compound (33), D-Phe-D-Phe-D-Leu-D-Lys-[1-phenyl-1,3,8-triazaspiro[4.5]decan-4-one amide]]
Emax [1]: 86%
Emax [2]: 101%

CC(C)C[C@@H](NC(=O)[C@@H](Cc1ccccc1)NC(=O)[C@H](N)Cc1ccccc1)C(=O)N[C@H](CCCCN)C(=O)N1CCS(=O)(=O)CC1 [Compound (71), D-Phe-D-Phe-D-Leu-D-Lys-[thiolmorpholine-1,1-dioxide amide]]
EC50 [1]: 0.192 nM
Emax [1]: 89%
EC50 [2]: 0.0306 nM
Emax [2]: 103%

CNCCC[C@@H](NC(=O)[C@@H](CC(C)C)NC(=O)[C@@H](Cc1ccccc1)NC(=O)[C@H](N)Cc1ccccc1)C(=O)N1CCCNCC1 [Compound (60), D-Phe-D-Phe-D-Leu-(δ-Me)D-Orn-[homopiperazine amide]]
EC50 [1]: 0.045 nM
Emax [1]: 95%
EC50 [2]: 0.09 nM
Emax [2]: 106%

CC(C)C[C@@H](NC(=O)[C@@H](Cc1ccccc1)NC(=O)[C@H](N)Cc1ccccc1)C(=O)N[C@H](CCCCN)C(=O)N1CCN(S(=O)(=O)N(C)C)CC1 [Compound (67), D-Phe-D-Phe-D-Leu-D-Lys-[N,N-dimethylpiperazine-1-sulfonamide amide]]
EC50 [1]: 0.193 nM
Emax [1]: 86%
EC50 [2]: 0.0194 nM
Emax [2]: 101%

CC(C)C[C@@H](NC(=O)[C@@H](Cc1ccccc1)NC(=O)[C@H](N)Cc1ccccc1)C(=O)N[C@H](CCCN)C(=O)N1CCC(CC(N)C(=O)O)CC1 (stereo partly drawn) [Compound (44), D-Phe-D-Phe-D-Leu-D-Orn-[ω(D/L-2-amino-3-(4-N-piperidinyl)propionic acid)]-OH]
EC50 [1]: 0.028 nM
Emax [1]: 102%
EC50 [2]: 0.13 nM
Emax [2]: 104%

CC(C)C[C@@H](NC(=O)[C@@H](Cc1ccccc1)NC(=O)[C@H](N)Cc1ccccc1)C(=O)N[C@H](CCCCN)C(=O)N1CCC(C(=O)N2CCOCC2)CC1 [Compound (29), D-Phe-D-Phe-D-Leu-D-Lys-[morpholino(piperidin-4-yl)methanone amide]] (H-[dF][dF][dL][dK][Inp]-Morpholide)
EC50 [1]: 0.0464 nM
Emax [1]: 86%
EC50 [2]: 0.0145 nM
Emax [2]: 100%

CC(C)C[C@@H](NC(=O)[C@@H](Cc1ccccc1)NC(=O)[C@H](N)Cc1ccccc1)C(=O)N[C@H](CCCNC(C)C)C(=O)N1CCC(N)(C(=O)O)CC1 [Compound (58), D-Phe-D-Phe-D-Leu-(δ-iPr)D-Orn-[ω(4-aminopiperidine-4-carboxylic acid)]-OH]
EC50 [1]: 0.193 nM
Emax [1]: 92%
EC50 [2]: 0.12 nM

CC(C)C[C@@H](N)C(=O)N[C@H](CCCN)C(=O)N[C@@H](CCCCNC(=O)[C@@H](CCCN)NC(=O)[C@@H](CC(C)C)NC(=O)[C@@H](Cc1ccccc1)NC(=O)[C@H](N)Cc1ccccc1)C(=O)O [Compound (76), D-Phe-D-Phe-D-Leu-D-Orn-[eLys(D-Orn-D-Leu-H)]-OH]
EC50 [1]: 1.07 nM
Emax [1]: 96%
EC50 [2]: 0.26 nM
Emax [2]: 83%

CC(C)C[C@@H](NC(=O)[C@@H](Cc1ccccc1)NC(=O)[C@H](N)Cc1ccccc1)C(=O)N[C@H](CCNC(=N)N)C(=O)N1CCC(N)(C(=O)O)CC1 [Compound (11), D-Phe-D-Phe-D-Leu-D-Nar-[ω(4-aminopiperidine-4-carboxylic acid)]-OH] (H-[dF][dF][dL][dAgb]-{Piperidin1yl(4-NH2,4-COOH)})
EC50 [1]: 0.052 nM
Emax [1]: 92%
EC50 [2]: 0.15 nM
Emax [2]: 82%
